Measurements as given in US10973880B2, “Compositions and methods for treating pulmonary hypertension” (Acceleron Pharma Inc., priority 2016, dated 2021).

Experiments:
[1] = test system: rat model of pulmonary arterial hypertension (PAH), monocrotaline (MCT) induced; experiment: monocrotaline rat model of pulmonary arterial hypertension; format: in vivo, Sprague Dawley rats
Description: The effects of an ActRIIA-mFc fusion protein (ActRIIA-mFc homodimer as described in Example 1), an ALK4-Fc-ActRIIB-Fc heterodimer (as described in Examples 12 and 13), and sildenafil (a phosphodiesterase-5 inhibitor approved for the treatment of PAH) were examined in a rat model of pulmonary arterial hypertension (PAH). In this model, Sprague Dawley rats received a […] injection of monocrotaline (MCT) to induce PAH 24 hours prior to start of therapy.
Rats were separated into different treatment groups (10 mice per group): 1) treatment with MCT (60 mg/kg administered i.p. as a single dose at day 1 of study) and Tris buffered saline (i.p. as 1 ml/kg, every three days) (vehicle treatment group), 2) treatment with an ActRIIA-mFc polypeptide (10 mg/kg administered i.p. every three days) and MCT (60 mg/kg administered i.p. as a single dose at day 1 of study), 3) treatment with an ALK4-Fc:ActRIIB-Fc heterodimer (10 mg/kg administered i.p. every three days) and MCT (60 mg/kg administered i.p. as a single dose at day 1 of study), 4) treatment with sildenafil (30 mg/kg administered orally twice daily) and MCT (60 mg/kg administered i.p. as a single dose at day 1 of study), and 5) control rats (Tris buffered saline administered i.p. as 1 ml/kg, every three days). Rats were treated for 28 days. Body weights were recorded prior to first dose on Day 1 and then weekly throughout the study.
On day 28, rats were anesthetized by an intraperitoneal injection of ketamine/xylazine (80/10 mg/kg). An incision was made in the neck, and a jugular vein was isolated and ligated anteriorly. A fluid-filled pressure catheter was introduced into the right jugular vein to measure pulmonary artery pressure (PAP). Another incision was made in the inguinal region, and femoral artery was isolated and ligated anteriorly. A Millar pressure catheter was introduced into a femoral artery to measure systolic arterial pressure, diastolic pressure, and heart rate. Mean arterial pressure and right PAP were monitored using the Notocord HEM (Croissy sur Seine, Frnace) v3.5 data capture system for approximately 5-10 minutes until stable measurements were obtained. During the measurements, rats were maintained at approximately 37° C. on a heating pad and body temperature was monitored throughout the procedure with a rectal temperature probe. At the conclusion of the procedure, rats were euthanized, and the hearts and lungs were removed. The entire heart was weighed. Next, the atria were removed and the left ventricle with septum (LV+S) was separated from the right ventricle (RV). The ventricles were weighed separately. Hypertrophy was assessed, in part, by calculating RV/LV+S. The lungs were also weighed.
Similar trends were observed on vessel muscularity based on histopathologic scoring. After staining tissue samples to detect αSMA/elastin, 100 pulmonary arterioles, between 10 μm and 50 μm in size, per animal were categorized as non-muscularized, partially muscularized, or completely muscularized. Pulmonary arterioles from vehicle treated rats were determined to be 62.3% completely muscularized, 36.4% partially muscularized, and 1.4% non-muscularized. […] Histopathological scoring of smooth muscle hypertrophy of pulmonary arterioles were also recorded as follows: 0 (normal), 1 (minimal), 2 (mild), 3 (moderate), or 4 (marked).

[2] = test system: Sugen Hypoxia model of PAH (semaxanib/hypoxia); experiment: Sugen Hypoxia rat model of PAH; format: in vivo; conditions: 0 normal, 1 minimal, 2 mild, 3 moderate, 4 marked
Description: The effects of an ActRIIA-mFc fusion protein (ActRIIA-mFc homodimer as described in Example 1 and sildenafil (a phosphodiesterase-5 inhibitor approved for the treatment of PAH) were further examined the Sugen Hypoxia model of PAH. In this model, rats receive daily doses of semaxanib and are placed in a low oxygen environment (approximately 13% oxygen) to induce PAH 24 hours prior to start of therapy.
Rats were separated into different treatment groups (10 mice per group): 1) treatment with semaxanib (200 mg/kg administered s.c. as a single dose daily)/hypoxia and Tris buffered saline (administered i.p. as 1 ml/kg, every three days) (vehicle treatment group), 2) treatment with an ActRIIA-mFc polypeptide (10 mg/kg administered i.p. every three days) and semaxanib (200 mg/kg administered s.c. as a single dose daily)/hypoxia, 3) treatment with sildenafil (30 mg/kg administered orally twice daily) and semaxanib (200 mg/kg administered s.c. as a single dose daily)/hypoxia, and 4) control rats (Tris buffered saline administered i.p. as 1 ml/kg, every three days). Rats were treated for 28 days. Body weights were recorded prior to first dose on Day 1 and then weekly throughout the study.
On day 28, rats were anesthetized by an intraperitoneal injection of ketamine/xylazine (80/10 mg/kg). […] Hypertrophy was assessed, in part, by calculating RV/LV+S. The lungs were also weighed. […]

BMP10 = biological target: T1, BMP10 (Homo sapiens, UniProt O95393); experiment: Biacore ligand affinity (Example 10); format: binding; conditions: Smad 1/5/8 ligand
T1 sequence (O95393 317-424): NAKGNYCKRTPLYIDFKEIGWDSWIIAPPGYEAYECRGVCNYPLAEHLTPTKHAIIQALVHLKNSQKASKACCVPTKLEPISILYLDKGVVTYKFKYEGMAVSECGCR
Description: (§1) The affinity of GDF traps and other ActRIIB-hFc proteins for several ligands was evaluated in vitro with a Biacore™ instrument. Kd values were obtained by steady-state affinity fit due to the very rapid association and dissociation of the complex, which prevented accurate determination of kon and koff.

BMP6 = biological target: T2, BMP6 (Homo sapiens, UniProt P22004); experiment: Biacore ligand affinity (Example 10); format: binding; conditions: Smad 1/5/8 ligand
T2 sequence (P22004 375-513): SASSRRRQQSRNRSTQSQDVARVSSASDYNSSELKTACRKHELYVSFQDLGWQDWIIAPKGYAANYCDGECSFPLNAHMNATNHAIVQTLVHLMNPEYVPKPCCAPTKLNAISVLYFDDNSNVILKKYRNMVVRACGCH
Description: as §1

GDF8 = biological target: T3, GDF8 (Homo sapiens, UniProt O14793); experiment: Biacore ligand affinity (Example 10); format: binding; conditions: Smad 2/3 signaling ligand
T3 sequence (O14793 267-375): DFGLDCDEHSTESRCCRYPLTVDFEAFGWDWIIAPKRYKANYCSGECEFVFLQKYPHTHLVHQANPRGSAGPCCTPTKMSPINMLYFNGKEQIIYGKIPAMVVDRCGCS
Description: as §1

Substance	smooth muscle hypertrophy of pulmonary arterioles, average histopathological score ([1]; 0 normal, 1 minimal, 2 mild, 3 moderate, 4 marked) [score]	improvement in body weight ([1]; 28 days, compared to monocrotaline treated rats, proteins 10 mg/kg i.p. every three days, sildenafil 30 mg/kg orally twice daily)	smooth muscle hypertrophy of pulmonary arterioles, average histopathological score [2] [score]	binding to BMP10 (BMP10)	binding to BMP6 (BMP6)	binding to GDF8 (GDF8)
ActRIIA-mFc: extracellular domain of human ActRIIa fused to a mouse Fc domain with a minimal linker; homodimer	1.6	did not show improvement	1.4	–	–	–
ActRIIB(L79D 25-131)-hFc: GDF trap with truncated ActRIIB extracellular domain (residues 25-131, L79D) fused to human Fc (SEQ ID NO: 78)	–	–	–	strong to intermediate binding	strong to intermediate binding	strong to intermediate binding
